Structures can show the parent of a compound that is named as a salt.
Tests used:
AC1-C1b/CaM = biological target: T1, AC1-C1b/CaM (Homo sapiens, UniProt P0DP23); test: AC1-C1b/CaM fluorescence polarization (FP) assay; format: binding; details: for IC50: 100 nM AC1-C1b, 100 nM GST-CaM, 95% CI in brackets; for Ki: Cheng-Prusoff from FP IC50 and Kd; for AC1-CaM FP % inhib: relative to 100 μM CDZ (100% inhibition), highest concentration tested
T1 construct: made in house; host or cells: E. coli BL21-CodonPlus (DE3)-RIPL

[1] = CellTiter-Glo 2.0 cell viability assay; format: cell-based; details: human, HEK293T cells, pH 7.4; at the compound's AC1/CaM NanoBiT IC50 concentration; read-out: % Viable Cells at AC1 IC50;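 further: luminescence read-out after 30 min compound exposure at 37 °C in HEPES-buffered HBSS, scaled to vehicle-treated cells as 100% and cell-free buffer wells as 0%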
HEK293T cells = test: CellTiter-Glo 2.0 cell viability assay; format: cell-based; details: for decrease in cell viability at AC1/CaM IC50: at AC1/CaM NanoBiT IC50;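 on all read-outs here: luminescence read-out after 30 min compound exposure at 37 °C in HEPES-buffered HBSS, scaled to vehicle-treated cells as 100% and cell-free buffer wells as 0%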
AC8-C2b/CaM = biological target: T2, AC8-C2b/CaM (Homo sapiens, UniProt P0DP23); test: AC8-C2b/CaM FP counterscreen assay; format: binding; details: for Ki: Cheng-Prusoff from FP IC50 and Kd, n/i given where none; for Ki ratio (AC8-C2b/AC1): ratio >1: more potent in AC1/CaM FP;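 on all read-outs here: fluorescence polarization of AC peptide binding to GST-CaM in HEPES buffer with KCl and 50 µM CaCl2, compound preincubated 30 min with GST-CaM, DMSO and calmidazolium as controls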
T2 construct: made in house; host or cells: E. coli BL21-CodonPlus (DE3)-RIPL

AC8/CaM PPI = biological target: T3, AC8/CaM PPI (Homo sapiens, UniProt P0DP23); test: AC8/CaM NanoBiT assay in HEK293T cells; format: cell-based, rat; details: HEK293T, thapsigargin-stimulated, AUC; read-out: Nanobit: AC8-CaM IC50 (μM ± SEM)
T3 construct: confirmed as an AC1/AC8 non-selective hit against full-length AC1- and AC8-CaM in the NanoBiT assay; The hCaM residues 1–149, residues 1–1,248 of rat AC8 (rAC8); expressed in transfected cells; host or cells: HEK293T, transient transfection

AC1/CaM PPI = biological target: T4, AC1/CaM PPI (Homo sapiens, UniProt P0DP23); test: AC1/CaM NanoBiT assay in HEK293T cells; format: cell-based; details: HEK293T, thapsigargin-stimulated, AUC; read-out: Nanobit: AC1-CaM IC50 (μM ± SEM)
T4 construct: human AC1 (hAC1) residues 1–1,118 were cloned; The hCaM residues 1–149, residues 1–1,248 of rat AC8 (rAC8); expressed in transfected cells; host or cells: HEK293T, transient transfection

AC8-Nt/CaM = biological target: T5, AC8-Nt/CaM (Homo sapiens, UniProt P0DP23); test: AC8-Nt/CaM FP counterscreen assay; format: binding; details: for Ki: Cheng-Prusoff from FP IC50 and Kd, n/i given where none; for Ki ratio (AC8 NT/AC1): ratio >1: more potent in AC1/CaM FP;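 on all read-outs here: fluorescence polarization of AC peptide binding GST-CaM in HEPES buffer with CaCl2, compound preincubated with CaM 30 min, peptide read after 2 h at room temperature in dark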
T5 construct: made in house; host or cells: E. coli BL21-CodonPlus (DE3)-RIPL

[2] = Cytotoxicity assay (CellTiter-Glo 2.0) in AC1-HEK Δ3/6 KO cells; format: cell-based; details: human, percent of vehicle, read-out: % Viable Cells at AC1 30 μM
Experimental: (§1) Cryopreserved HEK293 cells with AC3 and AC6 knocked out, and stably expressing AC1, AC2, AC5, or AC8 (AC1-HEK Δ3/6 KO, AC2-HEK Δ3/6 KO, AC5-HEK Δ3/6 KO, or AC8-HEK Δ3/6 KO cells, respectively; [Soto-Velasquez et al., 2018]) were plated at 5,000 cells/well. Cells were then incubated for 1 h at 37°C and 5% CO2. Cells were then treated with varying concentrations of inhibitors for 30 min, followed by treatment with calcium ionophore A23187 (3 μM) in 500 μM 3-isobutyl-1-methylxanthine (IBMX), a phosphodiesterase inhibitor, for 1 h at RT (Sigma Aldrich, St. Louis, MO). Finally, Cisbio HTRF detection reagents were added and incubated for 1–24 h at RT. Plates were read according to manufacturer’s protocol on an HTRF-compatible plate reader at 620 and 665 nm cAMP concentrations were interpolated from a cAMP standard curve. […] For cytotoxicity assays, compounds were tested at 30 μM and this protocol was used with the exception of detection reagents; CellTiter-Glo 2.0 reagent was used according to manufacturer’s protocol and luminescence was read on the Synergy Neo2 plate reader. Data are normalized to cells treated with vehicle (100%) or 2% tween (0%) and are represented as the percent of vehicle, from the average of three independent experiments (N = 3).

AC1 = biological target: T6, AC1 (Homo sapiens, UniProt Q08828); test: cAMP accumulation assay, AC1-HEK Δ3/6 KO cells; format: cell-based; details: for IC50: CDI analog SAR set, 3 μM A23187, read-out: IC50 (μM) ± SEM AC1
T6 construct: expressed in transfected cells
Experimental: as §1, with “Cells” for “Cryopreserved HEK293 cells with AC3 and AC6 knocked out, and stably expressing AC1, AC2, AC5, or AC8 (AC1-HEK Δ3/6 KO, AC2-HEK Δ3/6 KO, AC5-HEK Δ3/6 KO, or AC8-HEK Δ3/6 KO cells, respectively; [Soto-Velasquez et al., 2018]) were plated at 5,000 cells/well. Cells”

AC8 = biological target: T7, AC8 (Homo sapiens, UniProt P40145); test: cAMP accumulation assay, AC8-HEK Δ3/6 KO cells; format: cell-based; details: for IC50: CDI analog SAR set, 3 μM A23187, read-out: IC50 (μM) ± SEM AC8
T7 construct: expressed in transfected cells
Experimental: as §1

AC2 = biological target: T8, AC2 (Homo sapiens, UniProt Q08462); test: cAMP accumulation assay, AC2-HEK Δ3/6 KO cells; format: cell-based
T8 construct: expressed in transfected cells
Experimental: as §1

T6 sequence (Q08828 whole entry): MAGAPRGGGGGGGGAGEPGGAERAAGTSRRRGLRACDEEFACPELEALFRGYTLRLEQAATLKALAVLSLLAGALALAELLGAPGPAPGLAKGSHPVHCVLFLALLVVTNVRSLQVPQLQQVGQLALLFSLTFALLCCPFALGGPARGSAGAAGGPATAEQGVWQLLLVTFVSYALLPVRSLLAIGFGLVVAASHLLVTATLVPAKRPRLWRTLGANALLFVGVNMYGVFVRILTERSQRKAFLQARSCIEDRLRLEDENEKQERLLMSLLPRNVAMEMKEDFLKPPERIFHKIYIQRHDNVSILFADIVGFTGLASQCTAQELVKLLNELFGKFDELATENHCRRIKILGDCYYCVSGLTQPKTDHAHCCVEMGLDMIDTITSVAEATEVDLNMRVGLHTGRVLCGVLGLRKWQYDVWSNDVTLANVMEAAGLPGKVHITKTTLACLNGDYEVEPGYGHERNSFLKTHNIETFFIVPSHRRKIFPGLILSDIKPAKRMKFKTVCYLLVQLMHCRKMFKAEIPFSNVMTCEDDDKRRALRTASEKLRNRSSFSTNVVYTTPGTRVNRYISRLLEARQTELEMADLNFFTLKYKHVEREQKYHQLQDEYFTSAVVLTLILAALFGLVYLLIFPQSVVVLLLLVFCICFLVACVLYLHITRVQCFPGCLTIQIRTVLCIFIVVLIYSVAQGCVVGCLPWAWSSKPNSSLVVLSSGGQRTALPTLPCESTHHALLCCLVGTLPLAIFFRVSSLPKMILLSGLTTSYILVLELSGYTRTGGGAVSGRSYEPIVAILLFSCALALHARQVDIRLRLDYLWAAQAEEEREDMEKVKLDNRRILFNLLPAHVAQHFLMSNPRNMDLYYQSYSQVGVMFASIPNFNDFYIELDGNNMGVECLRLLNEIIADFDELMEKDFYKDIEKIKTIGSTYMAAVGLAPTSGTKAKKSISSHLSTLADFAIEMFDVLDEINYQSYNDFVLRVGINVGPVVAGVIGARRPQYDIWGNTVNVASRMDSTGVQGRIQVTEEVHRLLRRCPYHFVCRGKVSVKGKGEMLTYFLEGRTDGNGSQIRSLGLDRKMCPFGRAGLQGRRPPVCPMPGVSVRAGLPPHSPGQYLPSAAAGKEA
T7 sequence (P40145 whole entry, species assumed): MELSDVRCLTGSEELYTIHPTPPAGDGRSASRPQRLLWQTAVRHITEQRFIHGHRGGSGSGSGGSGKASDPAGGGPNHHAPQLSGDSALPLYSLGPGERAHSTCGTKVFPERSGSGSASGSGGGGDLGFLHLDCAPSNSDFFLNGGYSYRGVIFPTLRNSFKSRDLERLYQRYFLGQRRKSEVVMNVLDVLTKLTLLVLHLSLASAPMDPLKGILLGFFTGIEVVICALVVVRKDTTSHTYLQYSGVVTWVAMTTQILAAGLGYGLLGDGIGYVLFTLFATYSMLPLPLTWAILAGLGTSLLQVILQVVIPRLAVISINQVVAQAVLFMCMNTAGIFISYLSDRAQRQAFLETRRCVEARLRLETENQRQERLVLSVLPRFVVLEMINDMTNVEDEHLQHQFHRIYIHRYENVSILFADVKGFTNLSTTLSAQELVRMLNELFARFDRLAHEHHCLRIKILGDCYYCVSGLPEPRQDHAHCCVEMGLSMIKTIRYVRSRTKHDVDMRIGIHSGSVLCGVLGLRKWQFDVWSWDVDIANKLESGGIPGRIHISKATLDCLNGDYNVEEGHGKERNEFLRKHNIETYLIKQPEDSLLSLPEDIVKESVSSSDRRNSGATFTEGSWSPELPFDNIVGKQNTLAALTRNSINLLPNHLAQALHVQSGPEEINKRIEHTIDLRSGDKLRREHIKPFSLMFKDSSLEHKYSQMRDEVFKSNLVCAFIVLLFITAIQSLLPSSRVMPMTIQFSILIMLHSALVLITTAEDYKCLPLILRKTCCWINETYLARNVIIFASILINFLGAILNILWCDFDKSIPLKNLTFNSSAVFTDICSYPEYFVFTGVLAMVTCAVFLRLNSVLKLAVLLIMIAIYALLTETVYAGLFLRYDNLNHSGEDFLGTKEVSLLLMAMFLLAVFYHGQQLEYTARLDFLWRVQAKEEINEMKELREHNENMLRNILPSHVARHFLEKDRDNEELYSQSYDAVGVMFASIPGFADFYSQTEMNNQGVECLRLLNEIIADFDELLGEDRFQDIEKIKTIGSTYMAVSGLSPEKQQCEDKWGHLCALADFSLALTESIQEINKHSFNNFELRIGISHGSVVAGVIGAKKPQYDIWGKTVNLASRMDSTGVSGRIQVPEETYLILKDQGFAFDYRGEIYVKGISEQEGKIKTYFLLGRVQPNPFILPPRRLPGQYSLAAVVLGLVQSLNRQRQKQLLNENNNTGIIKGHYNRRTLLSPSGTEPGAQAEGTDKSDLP
T8 sequence (Q08462 whole entry): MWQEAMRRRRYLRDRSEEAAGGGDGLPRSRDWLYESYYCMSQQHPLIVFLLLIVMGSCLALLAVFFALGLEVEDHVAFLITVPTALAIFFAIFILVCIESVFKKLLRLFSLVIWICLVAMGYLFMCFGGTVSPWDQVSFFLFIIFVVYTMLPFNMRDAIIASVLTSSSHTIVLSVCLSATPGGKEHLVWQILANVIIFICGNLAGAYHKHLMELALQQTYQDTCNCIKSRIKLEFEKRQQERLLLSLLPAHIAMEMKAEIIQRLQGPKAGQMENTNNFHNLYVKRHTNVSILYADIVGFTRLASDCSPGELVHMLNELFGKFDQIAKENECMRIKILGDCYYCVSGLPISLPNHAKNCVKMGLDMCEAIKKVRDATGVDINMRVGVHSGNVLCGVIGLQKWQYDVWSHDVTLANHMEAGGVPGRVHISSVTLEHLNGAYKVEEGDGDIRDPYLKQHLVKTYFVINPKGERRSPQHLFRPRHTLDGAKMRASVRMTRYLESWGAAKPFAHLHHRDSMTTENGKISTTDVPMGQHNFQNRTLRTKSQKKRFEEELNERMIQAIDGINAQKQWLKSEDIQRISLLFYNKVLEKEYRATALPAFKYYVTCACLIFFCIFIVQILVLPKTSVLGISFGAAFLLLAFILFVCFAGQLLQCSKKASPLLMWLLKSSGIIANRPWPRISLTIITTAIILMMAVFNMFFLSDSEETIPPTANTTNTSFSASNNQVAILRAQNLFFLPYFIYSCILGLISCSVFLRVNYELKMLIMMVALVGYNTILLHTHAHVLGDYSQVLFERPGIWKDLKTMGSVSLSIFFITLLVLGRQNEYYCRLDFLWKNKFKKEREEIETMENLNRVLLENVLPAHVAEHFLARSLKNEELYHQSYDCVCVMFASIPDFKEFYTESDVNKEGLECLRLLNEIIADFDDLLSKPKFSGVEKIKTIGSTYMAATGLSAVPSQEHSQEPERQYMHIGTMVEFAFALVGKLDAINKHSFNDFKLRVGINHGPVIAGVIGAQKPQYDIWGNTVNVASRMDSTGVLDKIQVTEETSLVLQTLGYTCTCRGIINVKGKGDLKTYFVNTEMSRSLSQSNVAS

SMILES: Cc1cc2nc3ccc(N(C)C)cc3[s+]c2cc1N [Compound 1, Tolonium Chloride]
- IC50 (AC1-C1b/CaM): 1.24 µM
- Ki (AC1-C1b/CaM): 0.29 µM
- viability at 30 min [1]: 80%
- decrease in cell viability at AC1/CaM IC50 (HEK293T cells): greater than 10%
- Ki (AC8-C2b/CaM): 0.44 µM
- Ki ratio (AC8-C2b/AC1) (AC8-C2b/CaM): 1.5
- IC50 (AC8/CaM PPI): 8.4 ± 1.19 µM
- IC50 (AC1/CaM PPI): 32.9 ± 1.01 µM
- Ki (AC8-Nt/CaM): 2.3 µM
- Ki ratio (AC8 NT/AC1) (AC8-Nt/CaM): 7.9

SMILES: Cc1cc(C(c2cccs2)N2CCOCC2)c(NC(=O)c2ccco2)s1 (stereo not shown) [Compound 30]
- viability at 30 min, 30 μM [2]: 100%
- IC50 (AC1): 10.6 ± 2.72 µM
- IC50 (AC8): 4.99 ± 1.1 µM

SMILES: Cc1cc(C(c2cccs2)N2CCC(C)CC2)c(NC(=O)c2ccco2)s1 (stereo not shown) [Compound 23]
- viability at 30 min, 30 μM [2]: 100%
- IC50 (AC1): 3.08 ± 0.25 µM
- IC50 (AC8): 4.21 ± 1.01 µM

SMILES: O=C(Nc1sc2c(c1C(c1cccs1)N1CCOCC1)CCCC2)c1ccco1 (stereo not shown) [Compound 32]
- % Inhibited at AC2 ± SEM (AC2; 30 μM): 10 ± 8%
- inhibition at 30 µM (AC2; read-out: % Inhibited at AC2 ± SEM): < 16%
- viability at 30 min, 30 μM [2]: 100%
- IC50 (AC1): 0.89 ± 0.04 µM
- inhibition of AC1 activity (AC1; CDI analog set, maximal inhibition of A23187 response): 100%
- IC50 (AC8): 1.86 ± 0.32 µM

SMILES: CCc1cc(C(Nc2ccccn2)c2cccs2)c(NC(=O)c2ccco2)s1 (stereo not shown) [Compound 33]
- viability at 30 min, 30 μM [2]: 88%
- IC50 (AC1): 3.58 ± 2.26 µM
- IC50 (AC8): 2.7 ± 1.92 µM

SMILES: CCc1cc(C(c2cccs2)N2CCN(CC)CC2)c(NC(=O)c2ccco2)s1 (stereo not shown) [Compound 26]
- viability at 30 min, 30 μM [2]: 61%
- IC50 (AC1): 4.39 ± 0.44 µM
- IC50 (AC8): 2.92 ± 1.36 µM

SMILES: CCN1CCN(C(c2cccs2)c2c(NC(=O)c3ccco3)sc3c2CCCC3)CC1 (stereo not shown) [Compound 28]
- viability at 30 min, 30 μM [2]: 88%
- IC50 (AC1): 20 ± 5.23 µM
- IC50 (AC8): 11.6 ± 1.82 µM
- fold more potent at AC8 than AC1 (AC8; cAMP accumulation IC50s): 2 fold

SMILES: CCCCC(CC)CNC(=N)NC(=N)NCCCCCCNC(=N)NC(=N)NCC(CC)CCCC (stereo not shown) [Compound 3, Alexidine]
- IC50 (AC1-C1b/CaM): 2.8 µM
- Ki (AC1-C1b/CaM): 0.67 µM
- AC1-CaM FP % inhib (AC1-C1b/CaM): 103%
- viability at 30 min [1]: 75%
- decrease in cell viability at 100 μM (HEK293T cells; 100 μM): 70%
- decrease in cell viability at AC1/CaM IC50 (HEK293T cells): 25%
- Ki (AC8-C2b/CaM): 2.6 µM
- Ki ratio (AC8-C2b/AC1) (AC8-C2b/CaM): 3.9
- IC50 (AC8/CaM PPI): 16.5 ± 1.15 µM
- IC50 (AC1/CaM PPI): 17.9 ± 1.15 µM
- Ki (AC8-Nt/CaM): 1.1 µM
- Ki ratio (AC8 NT/AC1) (AC8-Nt/CaM): 1.6

SMILES: [H]/N=C(\N/C(=N/[H])NCCCCCCNC(=N)NC(=N)Nc1ccc(Cl)cc1)Nc1ccc(Cl)cc1 [Compound 9, Chlorhexidine HCl]
- IC50 (AC1-C1b/CaM): 22 µM
- Ki (AC1-C1b/CaM): 5.2 µM
- AC1-CaM FP % inhib (AC1-C1b/CaM): 15%
- viability at 30 min [1]: 80%
- decrease in cell viability at AC1/CaM IC50 (HEK293T cells): greater than 10%
- Ki (AC8-C2b/CaM): 20.8 µM
- Ki ratio (AC8-C2b/AC1) (AC8-C2b/CaM): 4.0
- IC50 (AC8/CaM PPI): 47.1 ± 1.35 µM
- IC50 (AC1/CaM PPI): 111 ± 1.23 µM
- Ki (AC8-Nt/CaM): 13.8 µM
- Ki ratio (AC8 NT/AC1) (AC8-Nt/CaM): 2.7

SMILES: CN1CCN(C(c2cccs2)c2c(NC(=O)c3ccco3)sc3c2CCCC3)CC1 (stereo not shown) [Compound 27]
- viability at 30 min, 30 μM [2]: 48%
- IC50 (AC1): 34.8 ± 13 µM
- IC50 (AC8): 25.6 ± 6.77 µM

SMILES: CCc1cc(C(c2cccs2)N2CCOCC2)c(NC(=O)c2ccco2)s1 (stereo not shown) [Compound 31]
- viability at 30 min, 30 μM [2]: 37%
- IC50 (AC1): 5.25 ± 1.07 µM
- IC50 (AC8): 1.49 ± 0.38 µM

SMILES: O=C1c2c(O)ccc(O)c2C(=O)c2c(NCCNCCO)ccc(NCCNCCO)c21 [Compound 11, Mitoxantrone HCl]
- IC50 (AC1-C1b/CaM): 27.5 µM
- Ki (AC1-C1b/CaM): 6.5 µM
- AC1-CaM FP % inhib (AC1-C1b/CaM): 40%
- viability at 30 min [1]: 87%
- decrease in cell viability at AC1/CaM IC50 (HEK293T cells): greater than 10%
- Ki (AC8-C2b/CaM): 8.2 µM
- Ki ratio (AC8-C2b/AC1) (AC8-C2b/CaM): 1.3
- IC50 (AC8/CaM PPI): 29.8 ± 1.18 µM
- IC50 (AC1/CaM PPI): 44 ± 1.15 µM
- Ki (AC8-Nt/CaM): 41.1 µM
- Ki ratio (AC8 NT/AC1) (AC8-Nt/CaM): 6.3

SMILES: CCc1cc(C(c2ccccc2)N2CCN(C)CC2)c(NC(=O)c2ccco2)s1 (stereo not shown) [Compound 29]
- viability at 30 min, 30 μM [2]: 65%
- IC50 (AC1): 10.3 ± 1.45 µM
- fold reduction in AC1 potency compared to 15 (AC1; matched molecular pair 15): ~2 fold
- IC50 (AC8): 14.4 ± 4.1 µM
- fold reduction in AC8 potency compared to 15 (AC8; matched molecular pair 15): ~3 fold

SMILES: CCc1cc(C(c2cccs2)N2CCCCC2)c(NC(=O)c2ccco2)s1 (stereo not shown) [Compound 22]
- viability at 30 min, 30 μM [2]: 97%
- IC50 (AC1): 2.48 ± 0.39 µM
- IC50 (AC8): 3.23 ± 0.57 µM

SMILES: CCCCCCCCOc1ccccc1C(=O)Nc1ccc(C(=O)OCC[N+](C)(CC)CC)cc1 [Compound 7, Otilonium]
- IC50 (AC1-C1b/CaM): 17.1 µM
- Ki (AC1-C1b/CaM): 4.1 µM
- AC1-CaM FP % inhib (AC1-C1b/CaM): 92%
- viability at 30 min [1]: 96%
- cell viability reduced at highest concentration tested (HEK293T cells; 316 μM): ~50%
- Ki (AC8-C2b/CaM): 10.3 µM
- Ki ratio (AC8-C2b/AC1) (AC8-C2b/CaM): 2.5
- IC50 (AC8/CaM PPI): 12.8 ± 1.22 µM
- IC50 (AC1/CaM PPI): 18.8 ± 1.16 µM
- Ki (AC8-Nt/CaM): 6.3 µM
- Ki ratio (AC8 NT/AC1) (AC8-Nt/CaM): 1.6

From publication PMC9486168, “Protein-protein interaction-based high throughput screening for adenylyl cyclase 1 inhibitors: Design, implementation, and discovery of a novel chemotype” (Frontiers in Pharmacology, 2022)
